Test results: PMC9968098, “Towards Arginase Inhibition: Hybrid SAR Protocol for Property Mapping of Chlorinated N-arylcinnamamides” (International Journal of Molecular Sciences, 2023)
Read-outs that look alike come from different tables or passages of the source.

How the values were obtained:
[1] = tested on: P. falciparum 3D7/MRA-102; test: In vitro antiplasmodial activity (parasite growth, 48 h); type: cell-based; conditions: Plasmodium falciparum, read-out: Pf IC50 ± SD
Description: The following reagent was obtained through BEI Resources, NIAID, NIH: Plasmodium falciparum, strain 3D7, MRA-102, contributed by Daniel J. Carucci. Based on a modified procedure by Trager and Jensen, asexual erythrocytic stages of Pf were continuously maintained through in vitro culture. The chloroquine-sensitive strain is cultured thanks to human red blood cells (A+) and a culture medium mainly composed of RPMI 1640 (Gibco, Fisher Scientific, Loughborough, UK) containing NaHCO3 (32 mM), HEPES (25 mM), and L-glutamine. The medium was supplemented with 1.76 g/L of glucose (Sigma-Aldrich, […], Belgium), […] of hypoxanthine (Sigma-Aldrich), 100 mg/L of gentamycin (Gibco, Fisher Scientific) and 10% human pooled serum (A+), as previously described. Solutions of pure products were prepared in DMSO at 10 mg/mL. As DMSO is recognized as toxic for parasites, the highest concentration of solvent to which they were exposed was 1%. Thus, primary solutions were diluted in a culture medium to reach 100 μg/mL in the first row of a 96-well plate. Therefore, each test sample was applied in a series of eight 2-fold dilutions and tested in triplicate. The assay was performed with 2% parasitaemia and 1% haematocrit. After 48 h of incubation, plates were frozen at -20 °C for 12 h and parasite growth was quantified according to the methods described by Makler et al.. Chloroquine (Sigma-Aldrich) was used as positive standards in all experiments, with initial concentrations at 100 ng/mL. Infected and uninfected red blood cells (RBC) were used as positive (100% growth) and negative controls (0% growth). Consequently, comparison between infected erythrocytes and samples allowed us to estimate the growth inhibition. IC50 values were calculated from linear regression.

[2] = set-up: method as in PMID 35328580; conditions: experimentally determined lipophilicity, RP-HPLC; cited from earlier work
[3] = tested on: human monocytic leukemia cell line THP-1; set-up: method as in PMID 35328580; conditions: cell viability, THP-1 cells, n = 3; cited from earlier work
[4] = chloroquine-sensitive strain 3D7/MRA-102, 48 h incubation, n = 3

Row | IC50 [1, 4] | Compound | logk [2] | IC50 [3] | IC50 ([1]; 3D7, 48 h)
1 | > 30 µM | O=C(/C=C/c1ccc(Cl)cc1)Nc1ccccc1C(F)(F)F [1h] | 0.5506 | > 10 µM | 
2 | 3.8 ± 1.1 µM | O=C(/C=C/c1ccc(Cl)c(Cl)c1)Nc1cc(Cl)cc(Cl)c1 [2o] | 1.3043 | > 10 µM | 
3 | 6.9 ± 2.1 µM | O=C(/C=C/c1ccc(Cl)cc1)Nc1cccc(F)c1 [1c] | 0.7859 | > 10 µM | 
4 | > 30 µM | O=C(/C=C/c1ccc(Cl)cc1)Nc1ccccc1F [1b] | 0.6459 | > 10 µM | 
5 | 1.6 ± 0.07 µM | O=C(/C=C/c1ccc(Cl)c(Cl)c1)Nc1cc(C(F)(F)F)cc(C(F)(F)F)c1 [2p, (2E)-N-[3,5-bis(trifluoromethyl)phenyl]-3-(3,4-dichloro-phenyl)prop-2-enamide] | 1.4731 | > 10 µM | 
6 | 12.7 ± 2.1 µM | O=C(/C=C/c1ccc(Cl)cc1)Nc1cccc(Cl)c1 [1f] | 0.6192 | > 10 µM | 
7 | 3.4 ± 1 µM | O=C(/C=C/c1ccc(Cl)c(Cl)c1)Nc1cccc(F)c1 [2c] | 0.9071 | > 10 µM | 
8 | 7.9 ± 1.7 µM | O=C(/C=C/c1ccc(Cl)c(Cl)c1)Nc1ccc(Cl)cc1 [2g] | 0.6786 | > 10 µM | 
9 | > 30 µM | O=C(/C=C/c1ccc(Cl)cc1)Nc1ccccc1 [1a] | 0.4490 | > 10 µM | 
10 | > 30 µM | O=C(/C=C/c1ccc(Cl)c(Cl)c1)Nc1ccccc1C(F)(F)F [2h] | 0.6836 | > 10 µM | 
11 | 2.5 ± 0.9 µM | O=C(/C=C/c1ccc(Cl)cc1)Nc1cc(C(F)(F)F)cc(C(F)(F)F)c1 [1p, (2E)-N-[3,5-bis(trifluoromethyl)phenyl]-3-(4-chlorophenyl)prop-2-enamide] | 1.3064 | > 10 µM | 
12 | 4.4 ± 1.8 µM | O=C(/C=C/c1ccc(Cl)cc1)Nc1cc(Cl)cc(Cl)c1 [1o] | 1.1899 | > 10 µM | 
13 | 14.1 ± 3.1 µM | O=C(/C=C/c1ccc(Cl)c(Cl)c1)Nc1ccc(F)cc1 [2d] | 0.9009 | > 10 µM | 
14 | > 30 µM | O=C(/C=C/c1ccc(Cl)c(Cl)c1)Nc1ccccc1F [2b] | 0.7764 | > 10 µM | 
15 | 1.8 ± 0.08 µM | O=C(/C=C/c1ccc(Cl)c(Cl)c1)Nc1cc(F)cc(F)c1 [2l, (2E)-3-(3,4-dichlorophenyl)-N-(3,5-difluoro-phenyl)prop-2-enamide] | 0.9298 | > 10 µM | 
16 | > 30 µM | O=C(/C=C/c1ccc(Cl)c(Cl)c1)Nc1ccccc1Cl [2e] | 0.6488 | > 10 µM | 
17 | 5.2 ± 0.9 µM | O=C(/C=C/c1ccc(Cl)cc1)Nc1cc(F)cc(F)c1 [1l] | 0.8054 | > 10 µM | 
18 | 16 ± 2.5 µM | O=C(/C=C/c1ccc(Cl)c(Cl)c1)Nc1ccc(C(F)(F)F)cc1 [2j] | 1.0364 | > 10 µM | 

Row | IC50 [1, 4] | Compound | logk [2] | IC50 [3] | IC50 ([1]; 3D7, 48 h)
19 | > 30 µM | O=C(/C=C/c1ccc(Cl)cc1)Nc1cc(Cl)ccc1Cl [1n] | 0.9507 | > 10 µM | 
20 | 1.9 ± 0.06 µM | O=C(/C=C/c1ccc(Cl)c(Cl)c1)Nc1ccc(F)cc1F [2k, (2E)-3-(3,4-dichlorophenyl)-N-(2,4-difluoro-phenyl)prop-2-enamide] | 0.6989 | > 10 µM | 
21 | > 30 µM | O=C(/C=C/c1ccc(Cl)c(Cl)c1)Nc1cc(Cl)ccc1Cl [2n] | 1.0840 | > 10 µM | 
22 |  | CCN(CC)CCCC(C)Nc1ccnc2cc(Cl)ccc12 (stereo not shown) [CQ, chloroquine, reference compound] |  |  | 0.5 ± 0.2 µM
23 | 14.8 ± 3.1 µM | O=C(/C=C/c1ccc(Cl)cc1)Nc1cccc(C(F)(F)F)c1 [1i] | 0.8612 | > 10 µM | 
24 | 10.5 ± 2 µM | O=C(/C=C/c1ccc(Cl)c(Cl)c1)Nc1cccc(Cl)c1 [2f] | 0.7404 | > 10 µM | 
25 | 24.8 ± 2.5 µM | O=C(/C=C/c1ccc(Cl)cc1)Nc1ccc(OC(F)(F)F)cc1Br [1q] | 1.0278 | > 10 µM | 
26 | > 30 µM | O=C(/C=C/c1ccc(Cl)cc1)Nc1ccccc1Cl [1e] | 0.5241 | > 10 µM | 
27 | > 30 µM | O=C(/C=C/c1ccc(Cl)cc1)Nc1ccc(F)cc1 [1d] | 0.7808 | > 10 µM | 
28 | 21.4 ± 2.6 µM | O=C(/C=C/c1ccc(Cl)c(Cl)c1)Nc1ccccc1 [2a] | 0.6199 | > 10 µM | 
29 | 23 ± 2.7 µM | O=C(/C=C/c1ccc(Cl)c(Cl)c1)Nc1ccc(OC(F)(F)F)cc1Br [2q] | 1.2065 | > 10 µM | 
30 | 14.2 ± 2.3 µM | O=C(/C=C/c1ccc(Cl)c(Cl)c1)Nc1cccc(C(F)(F)F)c1 [2i] | 0.9873 | > 10 µM | 
31 | 4.6 ± 1.8 µM | O=C(/C=C/c1ccc(Cl)cc1)Nc1ccc(Cl)cc1Cl [1m] | 0.9665 | > 10 µM | 
32 | 11 ± 2.1 µM | O=C(/C=C/c1ccc(Cl)cc1)Nc1ccc(F)cc1F [1k] | 0.5746 | > 10 µM | 
33 | 29.2 ± 2.4 µM | O=C(/C=C/c1ccc(Cl)cc1)Nc1ccc(Cl)cc1 [1g] | 0.5598 | > 10 µM | 
34 | 3.4 ± 0.9 µM | O=C(/C=C/c1ccc(Cl)c(Cl)c1)Nc1ccc(Cl)cc1Cl [2m] | 1.0932 | > 10 µM | 
35 | > 30 µM | O=C(/C=C/c1ccc(Cl)cc1)Nc1ccc(C(F)(F)F)cc1 [1j] | 0.9078 | > 10 µM | 
